Read-outs that look alike come from different tables or passages of the source.
How the values were obtained:
[1] = test system: VEEV (TC-83); conditions: U-87 MG cells; recently reported; ref Pu et al., 2020; cited from earlier work
[2] = test system: U-87 MG cells; design: method as in Pu et al., 2020; conditions: ref Pu et al., 2020; cited from earlier work
[3] = test system: RSV-A; test: RSV-A cytopathic effect (CPE) reduction assay in HEp-2 cells, MTS read-out; format: cell-based, human respiratory syncytial virus, RSV-A strain Long
[4] = target: AAK1 (Homo sapiens, UniProt Q2M2I8); test: LanthaScreen Eu Kinase Binding Assay for AAK1
Sequence of AAK1 (Q2M2I8 whole entry): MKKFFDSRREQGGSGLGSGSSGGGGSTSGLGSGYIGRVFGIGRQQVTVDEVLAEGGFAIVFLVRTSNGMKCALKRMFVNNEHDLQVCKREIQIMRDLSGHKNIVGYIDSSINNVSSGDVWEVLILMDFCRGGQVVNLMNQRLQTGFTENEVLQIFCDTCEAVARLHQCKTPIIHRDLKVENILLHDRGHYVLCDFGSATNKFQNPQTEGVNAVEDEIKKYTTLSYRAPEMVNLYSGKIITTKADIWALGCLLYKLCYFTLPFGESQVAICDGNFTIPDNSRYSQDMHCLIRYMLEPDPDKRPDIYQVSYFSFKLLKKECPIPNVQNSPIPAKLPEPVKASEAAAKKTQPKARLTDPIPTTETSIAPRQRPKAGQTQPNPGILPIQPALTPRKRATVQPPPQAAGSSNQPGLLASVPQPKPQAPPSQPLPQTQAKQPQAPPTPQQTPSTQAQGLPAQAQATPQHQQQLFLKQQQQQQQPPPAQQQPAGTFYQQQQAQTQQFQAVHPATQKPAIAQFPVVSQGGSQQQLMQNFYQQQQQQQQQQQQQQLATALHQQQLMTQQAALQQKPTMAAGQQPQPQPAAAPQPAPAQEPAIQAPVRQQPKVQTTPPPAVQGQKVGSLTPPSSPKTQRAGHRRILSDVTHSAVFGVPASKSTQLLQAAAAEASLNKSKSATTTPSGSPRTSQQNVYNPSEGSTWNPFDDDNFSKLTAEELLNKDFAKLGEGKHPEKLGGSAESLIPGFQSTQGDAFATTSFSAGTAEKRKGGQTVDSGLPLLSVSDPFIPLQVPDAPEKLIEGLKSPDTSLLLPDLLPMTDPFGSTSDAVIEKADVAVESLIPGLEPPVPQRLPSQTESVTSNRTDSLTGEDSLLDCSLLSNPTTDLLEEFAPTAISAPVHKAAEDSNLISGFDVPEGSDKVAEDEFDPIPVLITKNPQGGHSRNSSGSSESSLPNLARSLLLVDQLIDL

[5] = test system: VEEV (TC-83); test: microbe, parasite or virus in culture; format: cell-based; conditions: Venezuelan equine encephalitis virus, U-87 MG, 18 h, read-out: VEEV EC50
[6] = target: adaptor-associated kinase 1 (AAK1); design: method as in Verdonck et al., 2019; conditions: ref Verdonck et al., 2019; read-out: AAK1 IC50 (enzymatic assay); cited from earlier work
[7] = in vitro; conditions: human
[8] = in vitro; conditions: human; remark: listed apart in the source
[9] = test system: RSV-A; test: Anti-RSV-A activity in A549 cells, viral RNA in supernatant by RT-qPCR; format: cell-based, RSV-A strain Long; conditions: human respiratory syncytial virus, 120 h; A549 cells, RT-qPCR of culture supernatant, MOI 0.1, 5 days; read-out: RSV-A EC50 (A549, viral RNA levels)
[10] = test system: SARS-CoV-2; test: microbe, parasite or virus in culture; format: cell-based, SARS-CoV-2 BetaCov/Belgium/GHB-03021/2020; conditions: Severe acute respiratory syndrome coronavirus 2, 96 h, read-out: SARS-CoV-2 EC50
[11] = in vitro; conditions: African green monkey
[12] = human respiratory syncytial virus, HEp-2, 96 h; read-out: RSV-A EC50

Question: Which EC50 [1] does the source give for COc1cc(O)c2c(c1)/C=C/C[C@H](O)[C@H](O)C(=O)/C=C\C[C@H](C)OC2=O [5Z-7-Oxozeanol] here?
Answer: Its EC50 is 2660 ± 130 nM.

Question: What about the CC50 [2] of the same compound?
Answer: The CC50 was > 10000 nM.

Question: Which results are given for COc1ccc(-c2cnc3[nH]cc(C#Cc4cccnc4)c3c2)cc1OC [Compound 1]?
Answer: selectivity index (SI) ([3]; CC50 HEp-2 / EC50 RSV-A): 10.5; EC50 ([3]; human respiratory syncytial virus, HEp-2, 96 h, read-out: RSV-A EC50): 190 ± 130 nM; IC50 [4]: 4.2 nM; EC50 [5]: 1220 ± 220 nM; IC50 [6]: 4 nM; CC50 at 4 days [7]: 2000 nM; CC50 [8]: > 10000 nM

Question: What does the source list for CCNC(=O)c1ccc(-c2cnc3[nH]cc(C#Cc4cccnc4)c3c2)cc1 [Compound 8b]?
Answer: EC50 [3, 12]: 300 ± 280 nM; EC50 [9]: 10 nM; AAK1 affinity (in words) [4]: low nanomolar AAK1 affinity; IC50 [4]: 4 nM; EC50 [10]: 580 ± 50 nM; EC50 [5]: 6010 ± 1810 nM; CC50 at 4 days [7]: 50000 nM; CC50 [11]: > 100000 nM; CC50 [8]: > 10000 nM

Question: Which results are given for CNC(=O)c1cccc(-c2cnc3[nH]cc(C#Cc4cccnc4)c3c2)c1 [Compound 8e]?
Answer: EC50 [3, 12]: 290 ± 320 nM; EC50 [9]: 200 nM; AAK1 affinity (in words) [4]: low nanomolar AAK1 affinity; IC50 [4]: 3.5 nM; EC50 [5]: > 10000 nM; CC50 at 4 days [7]: > 50000 nM; CC50 [8]: > 10000 nM

Question: Which EC50 [3, 12] does the source give for O=C(NC1CC1)c1cccc(-c2cnc3[nH]cc(C#Cc4cccnc4)c3c2)c1 [Compound 8f] here?
Answer: The EC50 was 160 ± 25 nM.

Question: And the EC50 [9]?
Answer: Its EC50 is 590 nM.

Question: And the “AAK1 affinity (in words)” value [4]?
Answer: The value was “low nanomolar AAK1 affinity”.

Question: And the IC50 [4]?
Answer: Its IC50 is 5.4 nM.

Question: And the EC50 [5]?
Answer: Its EC50 is 2750 ± 1220 nM.

Question: What about the CC50 at 4 days [7] of the same compound?
Answer: Its CC50 at 4 days is > 50000 nM.

Question: What about the CC50 [8] of the same compound?
Answer: Its CC50 is > 10000 nM.

From article PMC9643853, “Synthesis and evaluation of 3-alkynyl-5-aryl-7-aza-indoles as broad-spectrum antiviral agents” (Frontiers in Chemistry, 2022)
